System: Vaccinia virus
Assay: Antiviral activity against vaccinia virus in HFF cells by cytopathogenic effect assay
Assay type: functional, organism-based
Details: Orthopoxvirus vaccinia

SMILES: Nc1ccn(C[C@@H](CO)OCP(=O)(O)O)c(=O)n1 [CIDOFOVIR]
- EC50: 3.2 µM

SMILES: N#CC1=C(N)OC2=C(C(=O)CCC2)C1c1cn([C@H]2C[C@@H](O)[C@@H](CO)O2)c(=O)[nH]c1=O (some centres not stated)
- EC50: 0.6 µM

— ChEMBL document CHEMBL1138928, “Toward orthopoxvirus countermeasures: a novel heteromorphic nucleoside of unusual structure” (J Med Chem, 2006)
